This note sets out measurements from US20240108740A1, “THERAPEUTIC COMPOSITIONS INCLUDING SPN10 AND USES THEREOF” (Stealth BioTherapeutics Inc., priority 2022, published 2024).

Residues, ends and D or L forms follow the SMILES beside them.

In data set [1] the test system is mouse peritoneal macrophages. Briefly: Example 1: oxLDL-induced CD36 expression and foam cell formation. Format: cell-based. As for the experimental part: Other controls will include CD36 expression from mouse heart (H) and macrophages obtained from CD36 knockout mice (KO). The amount of CD36 protein will be normalized to β-actin.
Incubation of macrophages with oxLDL for 48 hours is also anticipated to increase foam cell formation. Foam cell will be visualized by oil red O, which stains lipid droplets red.
Incubation of macrophages with oxLDL is anticipated to increase the percentage of apoptotic cells.

Data set [2] deals with isolated mouse liver mitochondria. Nature of the data set: Example 11: mitochondrial respiration and membrane potential. The procedure: Isolated mouse liver mitochondria will be incubated with 100 pM of SPN10(s) (with or without aromatic-cationic peptides) or peptide conjugates, and oxygen consumption will be measured. […] Mitochondrial membrane potential will be measured using TMRM. It is anticipated that addition of mitochondria will result in immediate quenching of the TMRM signal, which will be readily reversible by the addition of FCCP, indicating mitochondrial depolarization. It is anticipated that the addition of Ca^2+ (150 μM) will result in immediate mitochondrial depolarization followed by progressive loss of quenching indicative of MPT.

Data set [3] is described as follows: Example 16: H2O2 scavenging, luminol-induced chemiluminescence. Format: biochemical. The settings on record: H2O2 4.4 nmol. As for the experimental part:
The effect of peptide conjugates, aromatic-cationic peptides, or SPN10(s) (with or without aromatic-cationic peptides) on H2O2 will be measured by luminol-induced chemiluminescence. Luminol (25 μM) and horseradish peroxidase (0.7 IU) will be added to a solution of H2O2 (4.4 nmol) followed by peptide conjugates; aromatic-cationic peptides; or SPN10(s) alone or in combination with aromatic-cationic peptides. Chemiluminescence will be monitored with a Chronolog Model 560 aggregometer (Havertown, PA) for 20 minutes at 37° C.

The next data set concerns N2A cells. Nature of the data set: Example 23: caspase activity (FLICA kit). The arrangement: dose or concentration left out as unconfirmed. As to conditions: 12 hours. The data set is classed as cell-based. The procedure: N2A cells will be grown on 96-well plates, treated with t-BHP (0.05 mM) in the presence of vehicle, peptide conjugates, aromatic-cationic peptides, or SPN10(s) with or without aromatic-cationic peptides at 37° C. for 12-24 hours. All treatments will be carried out in quadruplicate. N2A cells will be incubated with t-BHP ([…]) alone or in the presence of peptide conjugates, aromatic-cationic peptides, or SPN10(s) with or without aromatic-cationic peptides at 37° C. for 12 hours. Cells will be gently lifted from the plates with a cell detachment solution (Accutase, Innovative Cell Technologies, Inc., San Diego, CA, U.S.A.) and will be washed twice in PBS. Caspase activity will be assayed using a FLICA kit (Immunochemistry Technologies LLC, Bloomington, MN). According to the manufacturer's recommendation, cells will be resuspended (approx. 5×10^6 cells/mL) in PBS and labeled with pan-caspase inhibitor FAM-VAD-FMK for 1 hour at 37° C. under 5% CO2 while protected from light. Cells will then be rinsed to remove the unbound reagent and fixed. Fluorescence intensity in the cells will be measured by a laser scanning cytometer (Beckman-Coulter XL, Beckman Coulter, Inc., Fullerton, CA, U.S.A.) using the standard emission filters for green (FL1). For each run, 10,000 individual events will be collected and stored in list-mode files for off-line analysis.

For the next data set, the system named is SN-4741 cells. Nature of the data set: Example 31: MPP^+ toxicity (Hoechst 33342). The data set is classed as cell-based. The settings on record: 50 μM MPP^+, 48 hours. As for the experimental part: SN-4741 cells will be treated with buffer; 50 μM MPP^+; 50 μM MPP^+ and peptide conjugates; 50 μM MPP^+ and aromatic-cationic peptides; or 50 μM MPP^+ and SPN10(s); or 50 μM MPP^+ and SPN10(s) with aromatic-cationic peptides for 48 hours. Apoptosis will be measured by fluorescent microscopy with Hoechst 33342.

The subject of a further data set is Sprague-Dawley rats. Briefly: Example 43: cisplatin-induced acute renal injury. The settings on record: cisplatin 7 mg/kg i.p. Format: in vivo, rat. The procedure: Experimental Protocol: Sprague-Dawley rats (350-400 g) will be given a single dose of cisplatin (7 mg/kg) intraperitoneally (i.p.) on Day 1. Subjects will receive peptide conjugates (3 mg/kg) (n=8), aromatic-cationic peptides (an equivalent molar dose of aromatic-cationic peptide based on the concentration of the aromatic-cationic peptide administered in the peptide conjugate treatment group) (n=8), SPN10(s) (an equivalent molar dose of SPN10 based on the concentration of SPN10 administered in the peptide conjugate treatment group) (n=8), SPN10(s) in combination with aromatic-cationic peptides (e.g., an equivalent molar dose of SPN10 based on the concentration of SPN10 administered in the peptide conjugate treatment group and an equivalent molar dose of aromatic-cationic peptide based on the concentration of aromatic-cationic peptide administered in the peptide conjugate treatment group) (n=8) or saline vehicle (n=8) subcutaneously just prior to cisplatin administration, and once daily for 3 additional days. Subjects will be placed in metabolic cages for the final 24 hours of the trial for urine collection. At the end of the trial, blood samples will be withdrawn from tail veins and the kidneys harvested.
Renal function: Renal function will be assessed by measuring blood urea nitrogen (BUN), serum creatinine, urine creatinine, and urine protein. GFR will be estimated from creatinine clearance, which will be determined from serum and urinary creatinine, and urinary volume.
Renal Histology: Kidneys will be fixed in 10% neutral-buffered formalin and embedded in paraffin wax for sectioning. Three-micron sections will be stained with periodic acid-Schiff (PAS) and analyzed by light microscopy.

Data set [4] concerns isolated mitochondrial, cultured cells and animal subjects. Nature of the data set: Mitochondrial reduction potential. The settings on record: in vitro and in vivo. The source says:
It is anticipated that SPN10(s) (with or without aromatic-cationic peptides) and conjugates will enhance mitochondrial reduction potential in vitro in isolated mitochondrial and in vivo in cultured cells and animal subjects.

For `N=C(N)NCCC[C@H](NC(=O)[C@@H](N)Cc1c[nH]c2ccccc12)C(=O)N[C@@H](Cc1c[nH]c2ccccc12)C(=O)N[C@@H](CCCCN)C(N)=O` [SPN10, H-L-Trp-L-Arg-L-Trp-L-Lys-NH2] (H-WRWK-NH2), the “percentage of apoptotic cells induced by oxLDL” value in data set [1] was “significantly reduce the percentage of apoptotic cells”. In data set [1] (25 μg/mL oxLDL, 48 hours), the “up-regulation of CD36 protein levels by oxLDL” value is recorded as “significantly inhibit the up-regulation of CD36 protein levels”. In data set [1] (compared to vehicle control (V)), the “CD36 protein levels (western blot)” value was “significantly reduce CD36 protein levels”. The “oxLDL-induced up-regulation of CD36 mRNA” value in data set [1] (oxLDL 50 μg/mL, 48 hours) is “abolish the up-regulation of CD36”. Besides, in data set [1] (oxLDL, 48 hours), the “oxLDL-induced foam cell formation (oil red O)” value was “prevent oxLDL-induced foam cell formation”. The “respiratory ratio (state 3/state 4)” value in data set [2] (100 pM) was found to be 6.2 versus 6.0. Besides, the “mitochondrial depolarization or MPT by the compound alone (TMRM)” value in data set [2] (even at 200 μM) was “will not cause mitochondrial depolarization or MPT”. Further, the “luminol response (H2O2 scavenging)” value in data set [3] is “dose-dependently inhibit the luminol response”. The “increase in caspase activity by t-BHP” value with N2A cells is recorded as “dose-dependently inhibited”. Moreover, the “number of apoptotic cells after MPP^+” value with SN-4741 cells is on record as “reduce the number of apoptotic cells”. For the same molecule, in the data set with Sprague-Dawley rats, the “increase in BUN after cisplatin” value is “attenuate or prevent this effect”, the “increase in serum creatinine after cisplatin” value was “attenuate or prevent this effect” and the “reduction in body weight after cisplatin” value is given as “attenuate or prevent this effect”. Moreover, the mitochondrial reduction potential result in data set [4] is “enhance”.
